US20240398823A1, “DUAL INHIBITOR OF HISTONE DEACETYLASE 6 AND HEAT SHOCK PROTEIN 90” (TAIPEI MEDICAL UNIVERSITY, priority 2021, published 2024)

How the values were obtained:
CT26 tumor = CT26 tumor model, Compound 75 combined with CPT-11; format: in vivo, mouse; conditions: Compound 75 50 mg/kg plus CPT-11 20 mg/kg
Experimental: CT26 was injected subcutaneously into immunocompetent mice (BALB/c). The mice were treated with CPT-11 or combined Compound 75 with CPT-11 when the tumor grew to 50-100 mm^3. CPT-11 was given at 20 mg/kg for 7 consecutive days; compound 75 was given at 50 mg/kg every 2 days (8 doses in total, with suspension after day 14). […] Bar, S.E.M.
Whether Compound 75 could enhance the tumor suppressive effect of chemotherapeutic agents was evaluated. Control (vehicle), CPT-11 (20 mg/kg), or Compound 75 (50 mg/kg) was administered in combination with CPT-11 to mice and sacrificed them on day 25 as shown in FIG. 13A.

HDAC1 = target: T1, HDAC1 (Homo sapiens, UniProt Q13547); assay: HDAC enzymes inhibition assay (Reaction Biology), HDAC1; format: biochemical; conditions: 10-dose, 3-fold dilution from 10 μM, single experiment
T1 construct: Reaction Biology Corporation (ran the assay as a service)

HDAC3 = target: T2, HDAC3 (Homo sapiens, UniProt O15379); assay: HDAC enzymes inhibition assay (Reaction Biology), HDAC3; format: biochemical; conditions: 10-dose, 3-fold dilution from 10 μM, single experiment
T2 construct: Reaction Biology Corporation (ran the assay as a service)

[1] = tested on: colorectal cancer tumors (CT26); assay: CT26 tumor model, Compound 75 and Anti-PD1 alone and combined; format: in vivo
[2] = tested on: central memory T cells (TCM) in the spleen; assay: Central memory T cells in spleen by flow cytometry; format: in vivo, mouse
Experimental: Stage 1: CT26 was injected subcutaneously into the left dorsum of immunocompetent mice (BALB/c), and Compound 75 treatment was started after 3 days, administered intravenously at a dose of 50 mg/kg every two days (7 doses in total). After tumor removal, tumor cells were isolated for in vitro culture (untreated tumor control-tumor; Compound 75-treated tumor: Compound 75-tumor). Stage 2: On day 17, the isolated tumor cells were injected subcutaneously into the right side of the mouse back and the mice were sacrificed on day 37 (as shown in FIG. 14A). […] Data are mean t S.E.M. N values greater than 4.

[3] = tested on: PD-L1 and IDO expression in tumor region (CT26); assay: IHC of PD-L1 and IDO in CT26 tumor region; format: in vivo, mouse; conditions: CT26 tumors, day 25, IHC, 10, 25, 50 mg/kg
Experimental: The tumors were removed and immunohistochemically stained at 25 days after intravenous tail injection in mice with colorectal cancer tumors. […] Bar, SD.
The effects of the HSP90/HDAC6 dual inhibitors as described in Synthesis Examples (such as Compounds 63, 64, and 66 to 76) on several factors were evaluated. IHC-Paraffin: Tumor tissues were excised from the mice, fixed in 4% formaldehyde solution in PBS, and embedded in paraffin. Sections of 4-5 μm were cut and placed in an oven at 60° C. for overnight. After deparaffinizing and rehydrating the section, the antigen retrieval was performed with citrate buffer (10 mM citrate acid, pH 6) or Tris buffer (10 mM Tris, 1 mM EDTA, pH9) by autoclave for 30 min at 121 C. The sections were blocked with 10% goat serum and then incubated with primary antibodies against the following antigens: IDO (Santa Cruz Biotechnology Dallas, TX, USA), CD8 (Novus, Littleton, CO, USA) and granzyme B (Abcam, Cambridge, UK) at 4 C for overnight. IHC— Frozen for PD-L1: Tumor tissues were collected from the mice, embedded in OCT compound (Sakura Finetek, Torrance, CA, U.S.A.). […] Images of the tumor tissues sections were captured by Mirax Scan (CARL ZEISS, Germany) or TissueFAXS (Vienna, Austria) and analyzed by HistoQuest software (Vienna, Austria).
Compound 75 was evaluated to determine its ability to reduce PD-L1 and IDO in the tumor microenvironment.

serum TGF-β and IL-2 = assay: Serum cytokines in CT26 tumor mice; format: in vivo, mouse; conditions: day 25, 10, 25, 50 mg/kg
Experimental: FIGS. 11A and 11B show effects of Compound 75 on peripheral blood cytokines. BALB/c mice with CT26 tumors were treated with 10, 25 and 50 mg/kg of Compound 75 every two days and sacrificed on day 25. Data are expressed as mean t S.D. N values greater than 3. *P<0.05; ** P<0.01; *** P<0.001, compared to the control group.
The reasons for the decrease of Treg in blood were further investigated.

HCT116 = assay: MTT assay, survival of human colorectal cancer cells HCT116; format: cell-based; conditions: HCT-116, 48 h, mean ± SD, read-out: Human cell lines HCT116 IC50(μM ± SD)
Experimental: The effects on cell viability of the HSP90/HDAC6 dual inhibitors as described in Synthesis Examples (such as Compounds 63, 64, and 66 to 76) were evaluated. Cells were seeded in 96-well plates (5000 cells/well). The next day, the serially diluted drugs were added into the wells and incubated at 37° C. for 48 h. Cell viability was measured by the MTT assay and is expressed as percentages of surviving drug-treated cells relative to untreated control cells. The IC50 was calculated by non-linear regression analysis.
The inhibitory effect of the HSP90/HDAC6 dual inhibitors as described in Synthesis Examples on the survival rate of human colorectal cancer cells HCT116 is evaluated using MTT assay.

[4] = Anti-PD1 combination study, Compound 75 50 mg/kg/2 days

T1 sequence (Q13547 whole entry): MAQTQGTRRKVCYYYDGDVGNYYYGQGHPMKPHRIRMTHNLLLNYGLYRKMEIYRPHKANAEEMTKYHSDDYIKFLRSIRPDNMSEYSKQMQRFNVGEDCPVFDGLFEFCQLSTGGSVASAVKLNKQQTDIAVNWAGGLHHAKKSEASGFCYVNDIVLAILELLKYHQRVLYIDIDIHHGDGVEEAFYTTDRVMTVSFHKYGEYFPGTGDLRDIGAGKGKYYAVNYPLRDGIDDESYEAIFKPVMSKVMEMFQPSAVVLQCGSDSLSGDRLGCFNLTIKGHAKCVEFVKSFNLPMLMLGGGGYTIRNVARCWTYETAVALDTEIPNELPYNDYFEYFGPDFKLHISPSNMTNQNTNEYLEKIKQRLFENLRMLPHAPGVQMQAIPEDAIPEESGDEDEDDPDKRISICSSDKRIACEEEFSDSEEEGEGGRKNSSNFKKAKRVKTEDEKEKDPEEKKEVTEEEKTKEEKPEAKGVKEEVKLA
T2 sequence (O15379 whole entry): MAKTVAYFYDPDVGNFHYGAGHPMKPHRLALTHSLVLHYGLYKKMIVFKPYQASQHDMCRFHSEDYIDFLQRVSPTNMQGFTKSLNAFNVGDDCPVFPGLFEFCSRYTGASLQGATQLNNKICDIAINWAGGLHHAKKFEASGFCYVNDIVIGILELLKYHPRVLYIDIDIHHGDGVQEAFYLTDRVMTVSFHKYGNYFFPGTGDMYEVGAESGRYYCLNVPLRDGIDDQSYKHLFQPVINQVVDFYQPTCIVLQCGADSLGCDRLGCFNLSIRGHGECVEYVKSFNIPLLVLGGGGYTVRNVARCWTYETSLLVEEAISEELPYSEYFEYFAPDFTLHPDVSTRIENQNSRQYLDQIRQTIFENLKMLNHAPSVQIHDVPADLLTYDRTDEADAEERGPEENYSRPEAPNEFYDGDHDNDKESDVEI
T2 sequence (Q9Y618 395-489 partner limits assumed): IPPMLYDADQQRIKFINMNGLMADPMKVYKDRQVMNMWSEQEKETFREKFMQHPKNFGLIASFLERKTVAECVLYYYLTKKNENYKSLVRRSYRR

For `COc1ccc(N(Cc2ccc(C(=O)NO)cc2)C(=O)c2cc(C(C)C)c(O)cc2O)cc1` [Compound 75, 2,4-Dihydroxy-N-(4-hydroxycarbamoyl-benzyl)-5-isopropyl-N-(4-methoxy-phenyl)-benzamide], which “body weight, combined therapy versus CPT-11 alone” value (CT26 tumor) is on record?
The value was “no significant difference”.

What about the “tumor suppressive effect in combination with CPT-11” value (CT26 tumor; day 25) of the same compound?
Its value is “significantly enhanced the effect of CPT-11 therapy”.

What about the IC50 (HDAC1) of the same compound?
Its IC50 is 0.616 µM.

What about the IC50 (HDAC3) of the same compound?
The IC50 was 1.37 µM.

What about the body weight [1, 4] of the same compound?
Its body weight is “no significant change in body weight”.

What about the toxicity to mice [1, 4] of the same compound?
The toxicity to mice was “not significantly toxic”.

And the “treatment effect on CT26 tumor, agent alone” value ([1]; Compound 75 50 mg/kg/2 days or Anti-PD1 200 μg alone)?
Its value is “limited”.

And the “tumor growth, combined treatment with Anti-PD1” value ([1]; Compound 75 50 mg/kg/2 days plus Anti-PD1 200 μg)?
Its value is “significantly inhibited tumor growth”.

And the “percentage of central memory T cells” value [2]?
Its value is “significantly increased”.

What about the “PD-L1 and IDO expressions in the tumor region” value [3] of the same compound?
The value was “reduces PD-L1 and IDO expressions”.

What about the “serum IL-2” value (serum TGF-β and IL-2) of the same compound?
Its value is “had no effect”.

What about the “serum TGF-β expression” value (serum TGF-β and IL-2) of the same compound?
Its value is “significantly reduced”.

And the IC50 (HCT116)?
Its IC50 is 0.27 ± 0.01 µM.
